Test results published in ChEMBL document CHEMBL1148128, “Clathriol, a novel polyoxygenated 14beta steroid isolated from the New Zealand marine sponge Clathria lissosclera” (J Nat Prod, 2002).
pIC50: −log10 of the molar value.

Legend:
[1] = Antiinflammatory in rat peritoneal mast cell assessed as inhibition of histamine release; type: functional, cell-based
[2] = Antiinflammatory in rat peritoneal mast cell assessed as inhibition of histamine release at 30 uM; type: functional; design: scale not given: the % may be the effect or the level left
PBMC = assay: Inhibition of PMA or fMLP-induced human PBMC activation assessed as superoxide production at 30 uM; type: functional; design: scale not given: the % may be the effect or the level left

Structure (SMILES) | pIC50 [1] | Activity [2] [%] | Activity (PBMC) [%]
CC(C)[C@@H]1CC(O)O[C@H](C(C)[C@H]2CC(=O)[C@H]3[C@@H]4[C@@H](O)[C@H](O)[C@H]5[C@@H](O)[C@H](O)CC[C@]5(C)[C@H]4CC[C@]23C)C1 (stereo partly drawn) | 6.10 |  | 
CC(C)C(CCC(C)[C@H]1CC(=O)[C@H]2[C@@H]3[C@@H](O)[C@H](O)[C@H]4C[C@@H](O)CC[C@]4(C)[C@H]3CC[C@]12C)C(C)O (stereo partly drawn) |  | 72 | 76
